Each structure is given as a SMILES string. “And” between values parts separate entries of the source, which are not always exact repeats. Equal entries are not always repeated. The source made the active and inactive calls. No rule for the calls is given here.

For the test, the target named is glucose-6-phosphate dehydrogenase-6-phosphogluconolactonase (Plasmodium falciparum 3D7). The experiment in a line: inhibition of P. falciparum G6PD activity – biochemical, kinetic NADPH detection, orthogonal assay, SAR follow-up (AID 588593). As to conditions: recombinant PfG6PD-6PGL.
Regarding `CCN(CC)CCNC(=O)c1ccc2c(c1)NC(=O)/C(=C\c1ccccc1Cl)S2`, the IC50 (in general, the point on the concentration scale where inhibition reaches its midpoint) is 44.9 µM.

Consider `CCN1CCC[C@@H]1CNC(=O)c1ccc2c(c1)NC(=O)/C(=C/c1ccccc1F)S2`, for which the IC50 was 30.8 µM. With `O=C(Nc1nnc(S(=O)(=O)N2CCCCC2)s1)c1cccc(F)c1` the figure was 34 µM; with `O=C(Nc1nnc(S(=O)(=O)N2CCCCCC2)s1)c1ccccc1F`, 35.2 µM. With `Cc1cccc(C(=O)Nc2nnc(S(=O)(=O)N3CCCCCC3)s2)c1` the figure was 5.79 µM; with `COc1ccc(C(=O)Nc2nnc(S(=O)(=O)N3CCCCCC3)s2)cc1OC`, 5.48 µM; with `Cc1ccc(C(=O)Nc2nnc(S(=O)(=O)N3c4ccccc4CC3C)s2)cc1` (configuration not stated), > 80 µM (inactive). With `CCN1CCCC1CNC(=O)c1ccc2c(c1)N(Cc1ccccc1Cl)C(=O)c1ccccc1S2` (configuration not stated), the IC50 was > 80 µM (inactive).

Regarding `Cc1cccc(C(=O)Nc2nnc(S(=O)(=O)N3c4ccccc4CC3C)s2)c1` (configuration not stated), the IC50 is > 80 µM (inactive). With `O=C(Nc1nnc(S(=O)(=O)N2CCCCCC2)s1)C1CCCCC1` the figure was 38.5 µM.

With `O=C1Nc2cc(C(=O)NCCN3CCCCCC3)ccc2S/C1=C/c1ccccc1F`, the IC50 was 11 µM. The figure for `O=C1COc2ccc(C(=O)NCCN3CCCC3)cc2N1` is > 80 µM (inactive); for `O=C1COc2ccc(C(=O)NCCN3CCCCC3)cc2N1` it is 77 µM. Regarding `CN(C)CCNC(=O)c1ccc2c(c1)NC(=O)c1ccccc1O2`, the IC50 is > 80 µM (inactive).

Turning to `CCN1CCCC1CNC(=O)c1ccc2c(c1)NC(=O)/C(=C\c1ccccc1F)S2` (configuration not stated), the IC50 was 3.17 µM.

With `Cc1ccc(CN2C(=O)c3ccccc3Sc3ccc(C(=O)NCCN(C)C)cc32)cc1`, the IC50 is > 80 µM (inactive).

With `CCN(CC)CCNC(=O)c1ccc2c(c1)NC(=O)/C(=C\c1ccc(OC)cc1)S2`, the IC50 is 12.5 µM.

Consider `CN(CCNC(=O)c1ccc2c(c1)NC(=O)c1ccccc1S2)C1CCCCC1`, for which the IC50 was 28.6 µM. The figure for `O=C1COc2ccc(C(=O)NCCN3CCOCC3)cc2N1` is > 80 µM (inactive). With `CCN1CCC[C@H]1CNC(=O)c1ccc2c(c1)NC(=O)/C(=C/c1ccccc1F)S2` the figure was 9.49 µM; with `CCN1CCCC1CNC(=O)c1ccc2c(c1)NC(=O)c1ccccc1S2` (configuration not stated), 8.01 µM and 6.42 µM; with `CCN(CC)CCNC(=O)c1ccc2c(c1)NC(=O)/C(=C\c1ccccc1F)S2`, 9.37 µM. The figure for `COc1ccccc1C(=O)Nc1nnc(S(=O)(=O)N2CCCCCC2)s1` is 10 µM; for `CCN1CCCC1CNC(=O)c1ccc2c(c1)NC(=O)/C(=C\c1ccccc1Cl)S2` (configuration not stated) it is 3.32 µM. For `CCN1CCCC1CNC(=O)c1ccc2c(c1)NC(=O)c1ccccc1O2` (configuration not stated), the IC50 was 11.9 µM. With `COc1ccc(C(=O)Nc2nnc(S(=O)(=O)N3CCCCCC3)s2)cc1` the figure was 47.2 µM; with `CCN(CCNC(=O)c1ccc2c(c1)NC(=O)c1ccccc1S2)c1ccccc1`, > 80 µM (inactive); with `CCN(CC)CCNC(=O)c1ccc2c(c1)N(Cc1ccccc1Cl)C(=O)c1ccccc1S2`, > 80 µM (inactive). With `CCN(CCNC(=O)c1ccc2c(c1)N(CC)C(=O)c1ccccc1S2)c1ccccc1` the figure was 44.6 µM; with `CCN1CCCC1CNC(=O)c1ccc2c(c1)NC(=O)/C(=C/c1cccc3ccccc13)S2` (configuration not stated), 4.2 µM. In the case of `Cc1ccc(C(=O)Nc2nnc(S(=O)(=O)N3CCCCCC3)s2)cc1`, the IC50 was 10.7 µM.

For the compound `CCN(CC)CCNC(=O)c1ccc2c(c1)N(Cc1cc(C)ccc1C)C(=O)c1ccccc1S2`, the IC50 was > 80 µM (inactive). In the case of `O=C(Nc1nnc(S(=O)(=O)N2CCCc3ccccc32)s1)c1cccc(F)c1`, the IC50 is 15.9 µM. As to `O=C(Nc1nnc(S(=O)(=O)N2CCCCCC2)s1)c1cccc(Cl)c1`, the IC50 is 20.3 µM. The figure for `COc1ccc(/C=C2/Sc3ccc(C(=O)NCCN4CCCCCC4)cc3NC2=O)cc1` is > 80 µM (inactive); for `O=C1Nc2cc(C(=O)NCCN3CCOCC3)ccc2S/C1=C\c1ccccc1F` it is > 80 µM (inactive). The figure for `COc1cccc(C(=O)Nc2nnc(S(=O)(=O)N3CCCCCC3)s2)c1` is 31.6 µM; for `O=C1Nc2cc(C(=O)NCCN3CCCCC3)ccc2S/C1=C\c1ccccc1F` it is 24 µM. In the case of `Cc1ccccc1C(=O)Nc1nnc(S(=O)(=O)N2CCCCCC2)s1`, the concentration for half-maximal inhibition (IC50) is 11.6 µM.

With `CN1CCCC1CCNC(=O)c1ccc2c(c1)NC(=O)/C(=C/c1ccccc1F)S2` (configuration not stated), the IC50 was 45.2 µM. With `CN(C)CCNC(=O)c1ccc2c(c1)NC(=O)/C(=C\c1cccc(Cl)c1)S2` the figure was 43.6 µM; with `O=C1Nc2cc(C(=O)NCc3ccccc3)ccc2S/C1=C\c1ccccc1F`, > 80 µM (inactive); with `COc1ccc(/C=C2/Sc3ccc(C(=O)NCCN(C)C)cc3NC2=O)cc1`, > 80 µM (inactive). The figure for `COc1ccc(/C=C2/Sc3ccc(C(=O)NCCN4CCCC4)cc3NC2=O)cc1` is > 80 µM (inactive); for `CN1CCN(C(=O)c2ccc3c(c2)NC(=O)/C(=C/c2ccccc2Cl)S3)CC1` it is > 80 µM (inactive); for `CCN(CCNC(=O)c1ccc2c(c1)N(Cc1cc(C)ccc1C)C(=O)c1ccccc1S2)c1ccccc1` it is 48.2 µM. As for `CN(C)CCNC(=O)c1ccc2c(c1)NC(=O)CO2`, the IC50 is > 80 µM (inactive). The figure for `CCN(CC)CCNC(=O)c1ccc2c(c1)NC(=O)c1ccccc1O2` is 62.3 µM; for `CCN1CCCC1CNC(=O)c1ccc2c(c1)NC(=O)/C(=C/c1ccccc1C)S2` (configuration not stated) it is 5.01 µM. With `Cc1cccc(C(=O)Nc2nnc(S(=O)(=O)N3CCOCC3)s2)c1` the figure was 24.2 µM; with `O=C(Nc1nnc(S(=O)(=O)N2CCOCC2)s1)c1cccc(F)c1`, 51.9 µM; with `O=C(Nc1nnc(S(=O)(=O)N2CCCCCC2)s1)c1cccc(F)c1`, 18.1 µM.

As for `CCOc1ccc(C(=O)Nc2nnc(S(=O)(=O)N3CCCCCC3)s2)cc1`, the IC50 was 23.8 µM.

As for `CCN1CCCC1CNC(=O)c1ccc2c(c1)N(Cc1ccc(C(F)(F)F)cc1)C(=O)c1ccccc1S2` (configuration not stated), the IC50 was > 80 µM (inactive). The figure for `COc1cccc(/C=C2/Sc3ccc(C(=O)NCCN4CCCC4)cc3NC2=O)c1` is 35.3 µM; for `CCCN(CCC)CCNC(=O)c1ccc2c(c1)NC(=O)/C(=C\c1ccc(C)cc1)S2` it is 45.9 µM; for `CCN(CC)CCNC(=O)c1ccc2c(c1)NC(=O)c1ccccc1S2` it is 41.8 µM and 57.4 µM.

With `CC1Cc2ccccc2N1S(=O)(=O)c1nnc(NC(=O)c2cccc(F)c2)s1` (configuration not stated), the IC50 is 30.8 µM. With `CCN1CCCC1CNC(=O)c1ccc2c(c1)NC(=O)/C(=C/c1ccccc1OC)S2` (configuration not stated) the figure was 11.3 µM; with `Cc1cccc(C(=O)Nc2nnc(S(=O)(=O)N3CCCc4ccccc43)s2)c1`, > 80 µM (inactive). As to `O=C(NCCN1CCCC1)c1ccc2c(c1)NC(=O)c1ccccc1O2`, the concentration for half-maximal inhibition (IC50) is 35.6 µM. The figure for `O=C(Nc1nnc(S(=O)(=O)N2CCCCCC2)s1)c1cccc(Br)c1` is 7.09 µM; for `Cc1ccc(C(=O)Nc2nnc(S(=O)(=O)N3CCCc4ccccc43)s2)cc1` it is 54.6 µM; for `COc1cccc(/C=C2/Sc3ccc(C(=O)NCCN4CCCCCC4)cc3NC2=O)c1` it is 58.5 µM. With `CCN1CCCC1CNC(=O)c1ccc2c(c1)NC(=O)CO2` (configuration not stated) the figure was 41.4 µM; with `O=C(NCCN1CCOCC1)c1ccc2c(c1)NC(=O)c1ccccc1O2`, > 80 µM (inactive). Consider `CCN1CCCC1CNC(=O)c1ccc2c(c1)NC(=O)CS2` (configuration not stated), for which the IC50 was > 80 µM (inactive). The figure for `CCN(CC)CCNC(=O)c1ccc2c(c1)NC(=O)/C(=C\c1ccc(OC)c(OC)c1)S2` is 24.5 µM; for `CCN(CC)CCNC(=O)c1ccc2c(c1)NC(=O)CO2` it is > 80 µM (inactive); for `O=C(Nc1nnc(S(=O)(=O)N2CCCCCC2)s1)c1ccco1` it is 33.3 µM.

Consider `CCN(CC)CCNC(=O)c1ccc2c(c1)NC(=O)/C(=C/c1ccccc1)S2`, for which the IC50 was 18.4 µM. With `O=C(NCCN1CCCCC1)c1ccc2c(c1)NC(=O)c1ccccc1O2` the figure was 31.6 µM.

Regarding `O=C1Nc2cc(C(=O)NCCN3CCCCCC3)ccc2S/C1=C/c1ccccc1Cl`, the IC50 is > 80 µM (inactive).

As for `Cc1ccccc1C(=O)Nc1nnc(S(=O)(=O)N2CCCc3ccccc32)s1`, the IC50 is 46.9 µM. The figure for `O=C(NCCN1CCCC1)c1ccc2c(c1)NC(=O)c1ccccc1S2` is 60.5 µM; for `O=C(Nc1nnc(S(=O)(=O)N2CCCCCC2)s1)c1ccccc1` it is 13.3 µM; for `CC1Cc2ccccc2N1S(=O)(=O)c1nnc(NC(=O)c2cccc(Br)c2)s1` (configuration not stated) it is > 80 µM (inactive). The figure for `O=C1Nc2cc(C(=O)NCCN3CCCC3)ccc2S/C1=C/c1ccccc1Cl` is > 80 µM (inactive); for `CCN1CCCC1CNC(=O)c1ccc2c(c1)N(Cc1ccccc1F)C(=O)c1ccccc1S2` (configuration not stated) it is > 80 µM (inactive). With `CCCN(CCC)CCNC(=O)c1ccc2c(c1)NC(=O)/C(=C/c1ccccc1)S2` the figure was 27.2 µM. Consider `Cc1cccc(/C=C2/Sc3ccc(C(=O)NCCN4CCCC4)cc3NC2=O)c1`, for which the IC50 is 8.77 µM. Take `Cc1cccc(C(=O)Nc2nnc(S(=O)(=O)N3CCC(C)CC3)s2)c1`: the IC50 is 9.09 µM. `CCN(CC)CCNC(=O)c1ccc2c(c1)N(Cc1ccc(C)cc1)C(=O)c1ccccc1S2`: the IC50 was > 80 µM (inactive). With `CCN1CCCC1CNC(=O)c1ccc2c(c1)N(Cc1cccc(F)c1)C(=O)c1ccccc1S2` (configuration not stated) the figure was > 80 µM (inactive); with `O=C(Nc1nnc(S(=O)(=O)N2CCCCCC2)s1)c1ccc(F)cc1`, 43.9 µM. Consider `Cc1cccc(N2CCN(CCNC(=O)c3ccc4c(c3)NC(=O)c3ccccc3S4)CC2)c1C`, for which the IC50 is 47.9 µM. With `CCC(C)N(CCNC(=O)c1ccc2c(c1)NC(=O)c1ccccc1S2)C1CCCCC1` (configuration not stated) the figure was 4.02 µM.

The values above are taken from PubChem BioAssay AID588593 (Sanford-Burnham Center for Chemical Genomics, 2011).
